Values of other authors in Sander's compilation of Henry's law constants (doi:10.1002/cite.330370802).

Assay: Henry solubility constant Hcp at 294 K (mol/(m3 Pa))
Conditions: reference: Irmann (1965); cited value

Row | Structure (SMILES) | Henry solubility constant Hcp at 294 K
1 | CC(F)(F)Cl [1-chloro-1,1-difluoroethane] | 0.00019
2 | FC(F)(F)C(F)(Cl)Cl [1,1-dichlorotetrafluoroethane] | 5.8e-06
3 | CC(F)F [1,1-difluoroethane] | 0.00048

Assay: Henry solubility constant Hcp at 303 K (mol/(m3 Pa))
Conditions: reference: Irmann (1965); cited value

Row | Structure (SMILES) | Henry solubility constant Hcp at 303 K
4 | FC(F)=C(F)F [tetrafluoroethene] | 9.8e-06

Assay: Henry solubility constant Hcp at 298.15 K (mol/(m3 Pa))
Conditions: reference: Irmann (1965); cited value

Row | Structure (SMILES) | Henry solubility constant Hcp
5 | FC(F)(Cl)Cl [dichlorodifluoromethane] | 2.3e-05
6 | C=CC=C [1,3-butadiene] | 0.00015
7 | FC(F)F [trifluoromethane] | 0.0001
8 | FC(F)(F)Br [bromotrifluoromethane] | 2e-05
9 | FC(F)(F)CCl [2-chloro-1,1,1-trifluoroethane] | 0.00037
10 | FC(F)(F)F [tetrafluoromethane] | 1.9e-06
11 | FC(F)(F)Cl [chlorotrifluoromethane] | 5.7e-06
12 | FC(F)(F)C(F)(F)Cl [chloropentafluoroethane] | 3.2e-06
13 | CCCl [chloroethane] | 0.00063

Assay: Henry solubility constant Hcp at 293 K (mol/(m3 Pa))
Conditions: reference: Irmann (1965); cited value

Row | Henry solubility constant Hcp at 293 K | Structure (SMILES)
14 | 8.1e-06 | FC(F)(Cl)C(F)(F)Cl [1,2-dichlorotetrafluoroethane]
